Columns and labels:
[1] = tested on: FL-SMN mRNA; experiment: RT-PCR of FL-SMN and total SMN mRNA in spinal muscular atrophy fibroblasts; type: cell-based, human; conditions: effect of co-treatment with stress pathway inhibitor; FIG. 8B
Method: Following the manufacturer's protocols, DNase I-treated cDNA was synthesized using Superscript III or Thermoscript reverse transcriptase (Invitrogen). PCR reactions were performed in duplicate on the Roche Lightcycler 3.5 (Basel, Switzerland) or the Bio-Rad iCycler (Hercules, Calif.) using Quantitech SYBR green PCR mix (Qiagen, Valencia, Calif.). GeNorm software calculated a normalization factor for each sample using the relative amounts of at least two of the following reference genes, β2-microglobulin, […], actin, and/or eukaryotic elongation factor 1A (Vandesompele et al., 2002). Primers for the various experiments described herein are listed below.
Type I and type III spinal muscular atrophy (SMA I or SMA III) fibroblasts were treated with SFN for the indicated times. The relative fold increase in the ratio of FL-SMN/total SMN transcripts compared with the untreated cell line (normalized to 1) is plotted. Cell lines from left to right are GM09677, GM00232 and 2906. N≧2 independent experiments.
Spinal muscular atrophy fibroblasts were treated with 1.5 mM SFN alone for 51 hr. (SMA I, GM09677) or treated with 0.5 mM SFN for 8 hr. (SMA III, 2906) with or without […] SP600125 (JNK inhibitor), 2.5 mM 3-methyladenine (autophagy inhibitor, APG), […] antimycin A (mitochondrial inhibitor, MITO) or […] sirtinol (SIRT1 inhibitor). The fold increases in FL-SMN expression compared with either GAPDH or total SMN expression and the fold increase in total SMN expression compared with GAPDH expression after SFN treatment is plotted. Untreated values were normalized to 1 and are indicated by the horizontal line. (n=1 per cell line, performed in duplicate)
To determine which stress pathways are necessary for the increase in FL-SMN production, spinal muscular atrophy fibroblasts were co-treated with SFN and either SP600125, an inhibitor of the JNK pathway (Bennett et al., 2001), 3-methyladenine, an inhibitor of the autophagy pathway (Seglen et al., 1982), antimycin A, a mitochondrial inhibitor (Ranganathan et al., 2009), or sirtinol, an inhibitor of SIRT1 activity (Grozinger et al., 2001). […] SIRT1, an NAD+-dependent deacetylase, is known to regulate cellular stress responses, cellular metabolism and cellular survival (Salminen et al., 2009). Specifically, SIRT1 inhibition reduces the induction of HSR genes (Westerheide et al., 2009); SIRT1 activity enhances SOD2 expression (Anastasiou et al., 2006); SIRT1 negatively regulates the mammalian target of rapamycin triggering autophagy (Haigis et al., 2010); and SIRT1 activates mitochondrial biogenesis via the stress-responsive transcription factor PGC1a (Yu et al., 2009). The yeast ortholog Sir2 is necessary for the induction of mitochondrial biogenesis by 4PBA or HU in Saccharomyces cerevisiae (Cha 2010). […] However, SIRT1 can be activated by various post-translational changes. Therefore, the potential involvement of SIRT1 in the therapeutic effects of these drugs by inhibition studies was evaluated.

[2] = tested on: XALD fibroblasts; experiment: Inhibition studies: ATP5B immunofluorescence of drug-induced mitochondrial biogenesis; type: cell-based, human; conditions: inhibitor added before 4PBA, HU, TSA or SFN; XALD fibroblasts
Method: Performed as described in Watkins et al., 1995 using 4% formaldehyde, 1% Triton X-100, primary antibody anti-ATP5B (Millipore, Billerica, Mass.) or anti-ABCD3 (Invitrogen, Carlsbad, Calif.), and secondary antibody sheep anti-mouse IgG FITC-conjugated (Santa Cruz Biotechnology, Santa Cruz, Calif.) or goat anti-rabbit IgG rhodamine-conjugated (Jackson ImmunoResearch, West Grove, Pa.).
Antimycin A (10 ng/mL), LY294002, PD98059, RO-31-8425, SB203580, SP600125, and L-NAME were obtained from Sigma. Compound C was from EMD Biosciences (Darmstadt, Germany). Human fibroblasts were treated with each inhibitor. Then, 45-75 min later, either 4PBA, HU, TSA, or SFN was added. Cells were stained four to six days after treatment with one of the small molecules. As a control for inhibitors dissolved in DMSO, fibroblasts were treated with an equivalent amount of DMSO in the absence of inhibitor. […]
In FIGS. 2A-B, the JNK inhibitor SP600125 (10 μM+inh) was utilized. […] XALD fibroblasts were treated with each drug for four days with or without SP600125. (400× magnification). […] Normal human fibroblasts were treated with each of the small four molecules with or without SP600125 for six days. Quantitative in-cell western analyses were performed using anti-ATP5B.

[3] = tested on: K562 cells; experiment: Flow cytometric analysis of peroxisome proliferation (PEX14); type: cell-based, human; conditions: eight to ten days, FIG. 1E
Method: (§1) Fibroblasts (70-95% confluent) were treated with 5 mM 4PBA (1 mM for JNK inhibition studies), 600 μM HU, 200 nM TSA, or 5 μM SFN unless otherwise specified.
(§2) K562 cells were incubated with 50 nM Mitotracker Green FM, 300 nM Mitotracker Deep Red 633 (Invitrogen), or PBS as a negative control for 15 min at 37° C. or stained with anti-Pex14 using Caltag Fix and Perm reagents (Invitrogen) following the manufacturer's instructions. Stained cells were suspended in 0.5 mL of 1% paraformaldehyde/PBS and subjected to flow cytometric analysis (FACScan machine, Becton Dickinson, Franklin Lakes, N.J.).
(§3) K562 cells were treated with SB and HU for four to ten days. […] (n≧3 unless otherwise noted).
To determine whether the induction of mitochondrial biogenesis by SB or HU treatment was necessary for the induction of HbF-producing cell production, K562 cells were treated with SB or HU in the presence or absence of AA. […] After two to four days of drug treatment with or without AA, mitochondrial mass was measured using Mitotracker, a mitochondrial stain. Fold change (drug treated/control) is shown. […] After four days of drug treatment with or without AA, cells were stained with DAF. […] After eight to ten days of drug treatment, peroxisome proliferation was measured using an antibody against the peroxisomal membrane protein, PEX14 and a FITC-labeled secondary antibody. […]

[4] = tested on: K562 cells; experiment: Flow cytometric analysis of mitochondrial mass (Mitotracker); type: cell-based, human; conditions: FIG. 1C
Method: as §1, §2, §3
To determine whether the induction of mitochondrial biogenesis by SB or HU treatment was necessary for the induction of HbF-producing cell production, K562 cells were treated with SB or HU in the presence or absence of AA. […] After two to four days of drug treatment with or without AA, mitochondrial mass was measured using Mitotracker, a mitochondrial stain. Fold change (drug treated/control) is shown. […] After four days of drug treatment with or without AA, cells were stained with DAF. The relative number of cells producing HbF (DAF stained cells) were plotted. […] After eight to ten days of drug treatment, peroxisome proliferation was measured using an antibody against the peroxisomal membrane protein, PEX14 and a FITC-labeled secondary antibody. Fold change (drug treated/control) is shown. In FIGS. 1C, 1D, and 1E, the * represents a statistically significant increase in a measurement between drug treated and control samples or a statistically significant decrease in a measurement between drug treated and drug treated samples in the presence of AA (p≦0.05) (Bars=SEM). This finding indicates dependence of the beneficial effect (i.e., elevated HbF levels) on induced mitochondrial biogenesis. Thus, the therapeutic effects observed in SCD may involve the pharmacological induction of mitochondrial biogenesis by SB or HU. […]

[5] = tested on: K562 cells; experiment: HbF-producing cell production (DAF staining); type: cell-based, human; conditions: FIG. 1D
Method: as §1
K562 cells were suspended in 1.1 mL media and 240 μL of DAF [working solution 50 μL 2,7diaminofluorene (DAF) stock (50 μg DAF in 5 mL 90% glacial acetic acid), 50 μL 30% hydrogen peroxide, and 2.5 ml 200 mM Tris-HCl, pH 7.0]. DAF stained hemoglobinized cells were scored using a hemocytometer.
as §3
To determine whether the induction of mitochondrial biogenesis by SB or HU treatment was necessary for the induction of HbF-producing cell production, K562 cells were treated with SB or HU in the presence or absence of AA. […] After two to four days of drug treatment with or without AA, mitochondrial mass was measured using Mitotracker, a mitochondrial stain. Fold change (drug treated/control) is shown. […] After four days of drug treatment with or without AA, cells were stained with DAF. The relative number of cells producing HbF (DAF stained cells) were plotted. […] After eight to ten days of drug treatment, peroxisome proliferation was measured using an antibody against the peroxisomal membrane protein, PEX14 and a FITC-labeled secondary antibody. Fold change (drug treated/control) is shown. In FIGS. 1C, 1D, and 1E, the * represents a statistically significant increase in a measurement between drug treated and control samples or a statistically significant decrease in a measurement between drug treated and drug treated samples in the presence of AA (p≦0.05) (Bars=SEM). This finding indicates dependence of the beneficial effect (i.e., elevated HbF levels) on induced mitochondrial biogenesis. Thus, the therapeutic effects observed in SCD may involve the pharmacological induction of mitochondrial biogenesis by SB or HU.
K562 cells were treated for four days with HU in the presence or absence of SP600125 or PBS as a control (CON). […]

[6] = tested on: HbF; conditions: Keefer et al., 2006; cited from earlier work
[7] = tested on: XALD fibroblasts; experiment: Fatty acid β-oxidation of 1-14C-labeled fatty acids; type: cell-based, human
Method: Fatty acid β-oxidation activity in XALD fibroblasts was determined by measuring their capacity to degrade 1-^14C-labeled fatty acids to water-soluble products as described in McGuiness et al., 2003.
4PBA-induced peroxisomal VLCFA β-oxidation (degradation) is dependent on mitochondrial long chain fatty acid (LCFA) β-oxidation (McGuinness et al., 2003). […] Antimycin A (AA) is a cytochrome c reductase inhibitor that inhibits the mitochondrial electron transport chain, mitochondrial biogenesis, and thus, cellular respiration (Ranganathan et al., 2009). […] XALD fibroblasts were treated with 4PBA in the presence or absence of antimycin A (AA), a cytochrome c reductase inhibitor, for five days and β-oxidation levels of LCFA (C16:0) and VLCFA (C24:0) levels were measured.

[8] = K562 cells, 1.2 mM SB or 100 μM HU

## Cn1cnc(N)c2ncnc1-2 [3-methyladenine]
[1]
  increase in FL-SMN transcript levels in SFN-treated spinal muscular atrophy fibroblasts: prevented

## COC(=O)[C@@H](N)CCCNC(=N)N[N+](=O)[O-] [L-NAME]
[2]
  Inhibits Mitochondrial Biogenesis?: no

## COc1cccc(-c2cc(=O)c3ccccc3o2)c1N [PD98059]
[2]
  Inhibits Mitochondrial Biogenesis?: no

## Cn1cc(C2=C(c3c4n(c5ccccc35)CCC(CN)C4)C(=O)NC2=O)c2ccccc21 (stereo not drawn) [RO-21-8425]
[2]
  Inhibits Mitochondrial Biogenesis?: no

## C[S+]([O-])c1ccc(-c2nc(-c3ccncc3)c(-c3ccc(F)cc3)[nH]2)cc1 (stereo not drawn) [SB203580]
[2]
  Inhibits Mitochondrial Biogenesis?: no

## CCCC(=O)[O-].[Na+] [SB, Sodium butyrate]
[3]
  peroxisomal proliferation: significantly increased
[4]; [8]
  mitochondrial mass: significantly increased
[5]; [8]
  number of HbF-producing cells: significantly increased
[6]
  HbF levels: increased

## N#CC(=C(/N)Sc1ccccc1N)/C(C#N)=C(\N)Sc1ccccc1N [U0126]
[2]
  Inhibits Mitochondrial Biogenesis?: no

## COc1cc(C[C@H]2C(=O)OC[C@@H]2Cc2ccc(OC)c(OC)c2)ccc1O [arctigenin]
[2]
  Inhibits Mitochondrial Biogenesis?: no

## c1cc(-c2cnn3cc(-c4ccc(OCCN5CCCCC5)cc4)cnc23)ccn1 [compound C]
[2]
  Inhibits Mitochondrial Biogenesis?: no

## CC(NC(=O)c1ccccc1/N=C/c1c(O)ccc2ccccc12)c1ccccc1 (stereo not drawn) [sirtinol]
[1]
  increase in FL-SMN transcript levels in SFN-treated spinal muscular atrophy fibroblasts: prevented

## Antimycin A [AA]
[7]; 4PBA in the presence of AA
  induction of peroxisomal VLCFA β-oxidation: blocked
[7]; in the presence of AA (10 ng/mL)
  4PBA-induction of mitochondrial LCFA β-oxidation: inhibited
[4]; effect of co-treatment with AA
  induction of mitochondrial biogenesis by SB or HU treatment: significantly inhibited
[5]; effect of co-treatment with AA
  induction of HbF-producing cells by SB or HU treatment: significantly inhibited
[1]
  increase in FL-SMN transcript levels in SFN-treated spinal muscular atrophy fibroblasts: prevented
